Legend:
eosinophil = assay: Eosinophilia-Inhibitory Activity (Sephadex G-200 induced, bronchovesicular washing); type: in vivo; conditions: Rattus norvegicus, ip, 168 h, rats, 30 mg/kg intraperitoneally 10 minutes prior to each Sephadex administration (day 0, 2, 5), eosinophils at 7th day
Protocol: Rats weighing 250°-350 g were used (5 per group). The test method was a partial modification of the method reported by B. A. Spicer et al (Br. J. Pharmacol (1990), 101, 821). Sephadex G-200 having a particle size of 40°-120 micron was suspended in isotonic saline at 0.5 mg/ml and boiled for 5 hours on the administration day to allow swelling. The suspension was administered to the rats from the tail vein by 1 ml at day 0, day 2 and day 5. At the 7th day from the initiation of the administration, the rats were anesthetized with 25% urethane (5 ml/kg) and fixed at a dorsal position. A cut down tube was inserted into trachea and applied with a three-way cock at its end. A 5 ml plastic syringe was set on one end of the three-way cock, a 5 ml plastic syringe containing 6 units/ml heparin-PBS (37° C.) was set on the other end and the liquid was injected. Using the empty 5 ml plastic syringe, the liquid was inserted or sucked out three times. This set of operations were repeated three times and the liquid obtained was preserved on ice as a bronchovesicular washing (ca 12 ml). The obtained washing was centrifuged [1000 rpm (150 g)×5 min, 4° C.] and the supernatant thereof was removed by decantation. The residue was re-suspended in 500 μl of RPMI-1640 medium. The total leukocytes in the suspension was counted by Colter counter (Sysmex, MICROCELLCOUNTER CC-120). Hinkelmann's Solution (900 μl), which is an eosinophil count reagent, was added to 100 μl of the re-suspension for staining (1:9), and the proportion of eosinophil count relative to the leukocyte count in one microscopic field was determined using an optical microscope (NIKON, BIOPHOT Type 104). The drug (test compound) was intraperitoneally administered in a dose of 30 mg/kg 10 minutes prior to the respective administration of Sephadex. The control group was administered with an isotonic saline containing 1% Tween 80 and 1% dimethyl sulfoxide instead of the drug.
Eosinophilia-inhibitory activity was calculated from the following formula.

T lymphocytes = assay: Inhibitory action on T lymphocyte activation stimulated by concanavalin A ([3H]thymidine uptake); type: cell-based; conditions: mouse thymus T lymphocytes, 3 μg/ml concanavalin A, test drug 10 μM, read-out: growth-inhibitory activity, minus percentage figures relative to the control group (thymidine uptake)
Protocol: Inhibitory action on T lymphocyte activation stimulated by concanavalin A
The test was performed according to the method of Mishell, B. B. et al ["Cell Proliferation" in Selected Methods in Cellular Immunology, V, XXiX, W. H. Freeman Co., San Francisco, Calif. pp. 153-160, 1980].
T lymphocytes were isolated from mouse thymus by a conventional method and suspended in DMEM. The cells (5×10^6 cells/ml) were incubated at 37° C. for 12 hours in the presence of 3 μg/ml of concanavalin A. The test drug was added at 10 μM under these incubation conditions. After 12 hours of incubation, 2 μCi [3H]thymidine was added to each well and the well was incubated for 48 hours. After the incubation, the thymidine uptake was determined by a scintillation counter. The growth-inhibitory activity is shown in minus percentage figures relative to the figure of the control group.

Row | Compound | inhibition in vivo at 30 mg/kg (eosinophil) | inhibition at 10 µM (T lymphocytes)
1 | CNC(=S)n1ncnc1N [Compound A, 5-amino-1-[methylamino(thiocarbonyl)]-1H-1,2,4-triazole] | 88% | 
2 | CNC(=S)n1nc(N)nc1N [Compound B, 3,5-diamino-1-[methylamino(thiocarbonyl)]-1H-1,2,4-triazole] | 53% | 
3 | CNC(=S)n1nc(-c2ccc(C#N)cc2)nc1N [Compound C, 5-amino-3-(4-cyanophenyl)-1-[methylamino(thiocarbonyl)]-1H-1,2,4-triazole] | 87% | 
4 | CNC(=S)n1nc(-c2ccc(Cl)cc2)nc1N [Compound D, 5-amino-3-(4-chlorophenyl)-1-[methylamino(thiocarbonyl)]-1H-1,2,4-triazole] | 87% | -52%
5 | CNC(=S)n1nc(-c2ccc(OC)cc2)nc1N [Compound E, 5-amino-3-(4-methoxyphenyl)-1-[methylamino(thiocarbonyl)]-1H-1,2,4-triazole] | 70% | 
6 | Cn1cnc2ncnn2c1=S [Compound F, 6-methyl-1,2,4-triazolo[1,5-a]-1,3,5-triazine-7(6H)-thione] | 58% | 
7 | Cn1cnc2nc(-c3ccc(C#N)cc3)nn2c1=S [Compound G, 2-(4-cyanophenyl)-6-methyl-1,2,4-triazolo[1,5-a]-1,3,5-triazine-7(6H)-thione] | 79% | 
8 | Cn1cnc2nc(-c3ccc(Cl)cc3)nn2c1=S [Compound H, 2-(4-chlorophenyl)-6-methyl-1,2,4-triazolo[1,5-a]-1,3,5-triazine-7(6H)-thione] | 83% | -60%
9 | CNC(=S)n1nc(-c2cccc(Cl)c2)nc1N [Compound I, 5-amino-3-(3-chlorophenyl)-1-[methylamino(thiocarbonyl)]-1H-1,2,4-triazole] | 70% | 
10 | CNC(=S)n1nc(-c2ccc(F)cc2)nc1N [Compound J, 5-amino-3-(4-fluorophenyl)-1-[methylamino(thiocarbonyl)]-1H-1,2,4-triazole] | 80% | 
11 | CNC(=S)n1nc(-c2ccc(Br)cc2)nc1N [Compound K, 5-amino-3-(4-bromophenyl)-1-[methylamino(thiocarbonyl)]-1H-1,2,4-triazole] | 90% | -35%
12 | CNC(=S)n1nc(-c2ccc(C(F)(F)F)cc2)nc1N [Compound L, 5-amino-1-[methylamino(thiocarbonyl)]-3-(4-trifluoromethylphenyl)-1H-1,2,4-triazole] | 88% | -37%
13 | CNC(=S)n1nc(-c2ccc(-c3ccccc3)cc2)nc1N [Compound M, 5-amino-3-(4-phenylphenyl)-1-[methylamino(thiocarbonyl)]-1H-1,2,4-triazole] | 85% | 
14 | CNC(=S)n1nc(-c2ccc(Cl)cc2Cl)nc1N [Compound N, 5-amino-3-(2,4-dichlorophenyl)-1-[methylamino(thiocarbonyl)]-1H-1,2,4-triazole] | 90% | 
15 | CNC(=S)n1nc(-c2ccc(Cl)c(Cl)c2)nc1N [Compound O, 5-amino-3-(3,4-dichlorophenyl)-1-[methylamino(thiocarbonyl)]-1H-1,2,4-triazole] | 88% | 
16 | CNC(=S)n1nc(-c2ccc(Cl)cc2OC)nc1N [Compound P, 5-amino-3-(4-chloro-2-methoxyphenyl)-1-[methylamino(thiocarbonyl)]-1H-1,2,4-triazole] | 85% | 
17 | Cn1cnc2nc(-c3ccc(F)cc3)nn2c1=S [Compound Q, 2-(4-fluorophenyl)-6-methyl-1,2,4-triazolo[1,5-a]-1,3,5-triazine-7(6H)-thione] | 82% | 
18 | Cn1cnc2nc(-c3ccc(Br)cc3)nn2c1=S [Compound R, 2-(4-bromophenyl)-6-methyl-1,2,4-triazolo[1,5-a]-1,3,5-triazine-7(6H)-thione] | 88% | -58%
19 | Cn1cnc2nc(-c3ccc(C(F)(F)F)cc3)nn2c1=S [Compound S, 6-methyl-2-(4-trifluoromethylphenyl)-1,2,4-triazolo[1,5-a]-1,3,5-triazine-7(6H)-thione] | 89% | -36%
20 | Cn1cnc2nc(-c3ccc(-c4ccccc4)cc3)nn2c1=S [Compound T, 6-methyl-2-(4-phenylphenyl)-1,2,4-triazolo[1,5-a]-1,3,5-triazine-7(6H)-thione] | 80% | 
21 | Cn1cnc2nc(-c3ccc(Cl)cc3Cl)nn2c1=S [Compound U, 2-(2,4-dichlorophenyl)-6-methyl-1,2,4-triazolo[1,5-a]-1,3,5-triazine-7(6H)-thione] | 85% | -22%
22 | Cn1cnc2nc(-c3ccc(Cl)c(Cl)c3)nn2c1=S [Compound V, 2-(3,4-dichlorophenyl)-6-methyl-1,2,4-triazolo[1,5-a]-1,3,5-triazine-7(6H)-thione] | 87% | -40%

From patent US5750545A, “Triazole derivative and pharmaceutical use thereof” (The Green Cross Corporation, priority 1993, dated 1998)
